Measurements published in publication PMC12085399, “Quantitative in vitro-to-in vivo extrapolation of human adrenergic and trace amine-associated receptor 1 potencies of pre-workout supplement ingredients using physiologically based kinetic modelling-based reverse dosimetry” (Archives of Toxicology, 2025).
Read-outs that look alike come from different tables or passages of the source.

Experiments:
TAAR1 = test: PBK modelling-based reverse dosimetry of in vitro EC50 to ED50, TAAR1; set-up: species or system human; conditions: predicted human oral ED50 from in vitro EC50 (Pinckaers et al. [2024]) and modelled Cmax plasma venous
Description: (§1) The in vitro effect concentrations (EC50), for activation of the α1A, α1B, α1D, α2A, α2B, β1 and β2 ADR activation and the activation of TAAR1, were obtained from our previous study (Pinckaers et al. [2024]).

[1] = In vitro hepatic clearance by human liver S9 (compound depletion); type: in vitro ADME; conditions: for Predicted intrinsic hepatic metabolic clearance CLmet: CLint,u scaled to a whole liver, 121 mg HLS9/g liver; for Predicted intrinsic hepatic metabolic clearance CLmet / k el at 1 µM / microsomal CLint at 1 µM: human; for metabolism in incubations without co-factor mix: HLS9 without co-factor mix; for k el at 1 µM: pH 7.4, full reaction mix (HLS9 and co-factor mix), HLS9 concentration per compound (0.10-2 mg/mL), read-out: elimination rate constant k (converted)
Method: In vitro intrinsic hepatic clearance (CLint) values of the phenethylamine analogues were determined in experiments with pooled human liver S9 (HLS9; Corning, Woburn, MA, USA and Gibco, USA), by measuring the rate of compound depletion. Stocks of 1 mM PEA compounds were prepared in DMSO and stocks of 10 mg/mL alamethicin were prepared in methanol. The final incubation mixtures consisted of 1 µM of PEA compound (0.1% DMSO) in 100 mM potassium phosphate buffer with 5 mM magnesium chloride (pH 7.4) supplemented with 0.025 mg/mL alamethicin (0.25% methanol) and 0.1–2 mg/mL HLS9. […] Incubation mixtures were first pre-incubated at 37 °C in a shaking incubator at 300 rpm for 5 min. After 5 min, the reaction was initiated by adding a co-factor mix in supplemented buffer with final concentrations of 3 mM nicotinamide adenine dinucleotide phosphate (NADPH; for oxidation, reduction and hydrolysis), 5 mM uridine diphosphate glucuronic acid (UDPGA; for glucuronidation), 0.2 mM adenosine 3’-phosphate 5’-phosphosulfate lithium salt hydrate (PAPS; for sulfation) and 0.2 mM S-(5’-Adenosyl)-L-methionine p-toluenesulfonate salt (SAM; for methylation). The final incubation volume was 100 µL and incubations were performed in 1.5 mL Safe-Lock Eppendorf tubes (Eppendorf) in a shaking incubator (300 rpm) at 37 °C (Eppendorf Thermomixer). Incubations were terminated by adding 100 µL ice-cold acetonitrile after, 0, 2.5, 5, 10, 20, 40 and 60 min. Then, samples were vortexed, put on ice and stored at -20 °C until the day of the LC–MS/MS analysis. Controls of incubation mixtures without HLS9 or mixtures without co-factors were also included. Two independent experiments, both in duplicate, were performed on different days. On the day of the LC–MS/MS analysis, samples were thawed and centrifuged at 15,000 rpm for 10 min. The supernatant was collected in glass insert vials for LC injection (BGB Analytik, Harderwijk, The Netherlands). Details on the methods of the LC–MS/MS analysis are described in Sect. "LC–MS/MS analysis". After determining the PEA (analogue) amount at the different time points, the CLint was calculated. The natural logarithm of compound concentrations was plotted against time and the slope of this curve represented the elimination rate constant k (in 1/min). The half-life (t1/2 in minutes) was calculated by: ln (2)/k (in 1/min). The volume of incubation (V) in µL/mg protein was determined by: 1000 / HLS9 concentration (in mg/mL). Finally, CLint could be calculated by: CLintμL/min/mg protein=VμL/mg protein∗ln2/t1/2min.
The fraction unbound in these in vitro liver clearance incubations was calculated with the method of (Hallifax and Houston [2006]) in which unspecific binding in HLS9 incubations was assumed to be the same as in liver microsomal incubations. The in vitro obtained HLS9 CLint values were corrected for protein binding in the HLS9 incubation and were scaled to a whole liver by using a scaling factor of 121 mg HLS9/g liver (Houston and Galetin [2008]).

ADRα1D = test: PBK modelling-based reverse dosimetry of in vitro EC50 to ED50, ADRα1D; conditions: predicted human oral ED50 from in vitro EC50 (Pinckaers et al. [2024]) and modelled Cmax plasma venous
Description: as §1

ADRβ1 = test: PBK modelling-based reverse dosimetry of in vitro EC50 to ED50, ADRβ1; set-up: species or system human; conditions: predicted human oral ED50 from in vitro EC50 (Pinckaers et al. [2024]) and modelled Cmax plasma venous
ADRα1B = test: PBK modelling-based reverse dosimetry of in vitro EC50 to ED50, ADRα1B; conditions: predicted human oral ED50 from in vitro EC50 (Pinckaers et al. [2024]) and modelled Cmax plasma venous
Description: as §1

ADRα1A = test: PBK modelling-based reverse dosimetry of in vitro EC50 to ED50, ADRα1A; conditions: predicted human oral ED50 from in vitro EC50 (Pinckaers et al. [2024]) and modelled Cmax plasma venous
Description: as §1

ADRα2A = test: PBK modelling-based reverse dosimetry of in vitro EC50 to ED50, ADRα2A; conditions: predicted human oral ED50 from in vitro EC50 (Pinckaers et al. [2024]) and modelled Cmax plasma venous
Description: as §1

[2] = s9, pH 7.4, CLint app corrected for unspecific protein (HLS9) binding, read-out: In vitro CLint,u
[3] = s9, pH 7.4, human liver S9 with co-factor mix (NADPH, UDPGA, PAPS, SAM), 1 µM, read-out: In vitro CLint app

SMILES	TAAR1 ED50 (TAAR1) [mg/kg bw]	Predicted intrinsic hepatic metabolic clearance CLmet [1] [L/h]	metabolism in incubations without co-factor mix [1]	k el at 1 µM ([1]; 1 µM) [s⁻¹]	microsomal CLint at 1 µM [1, 2] [µL/min/mg]	microsomal CLint at 1 µM [1, 3] [µL/min/mg]	ADRα1D ED50 (ADRα1D)	ADRβ1 ED50 (ADRβ1)	ADRα1B ED50 (ADRα1B)	ADRα1A ED50 (ADRα1A)	ADRα2A ED50 (ADRα2A)
CN(C)CCc1ccccc1 [Dimethylphenethylamine, N,N-dimethylphenethylamine]	14.0	245	metabolized in incubations without co-factor mix	0.000667	23	20	5.60 mg/kg bw	– (compounds with a dash (-) did not activate the receptors in vitro at concentrations ≤ 300 µM)	4.07 mg/kg bw	– (compounds with a dash (-) did not activate the receptors in vitro at concentrations ≤ 300 µM)	– (compounds with a dash (-) did not activate the receptors in vitro at concentrations ≤ 300 µM)
CNCC(O)c1ccccc1 (centres unmarked) [Halostachine, halostachine]	88.9	416	metabolized in incubations without co-factor mix	0.000312	39	37.4	2.52 mg/kg bw	– (compounds with a dash (-) did not activate the receptors in vitro at concentrations ≤ 300 µM)	1.32 mg/kg bw	10.5 mg/kg bw	– (compounds with a dash (-) did not activate the receptors in vitro at concentrations ≤ 300 µM)
Oc1ccc(CC2NCCc3cc(O)c(O)cc32)cc1 (centres unmarked) [Higenamine, higenamine]	6.09	261		0.000367	24.4	22	– (compounds with a dash (-) did not activate the receptors in vitro at concentrations ≤ 300 µM)	0.211 mg/kg bw	– (compounds with a dash (-) did not activate the receptors in vitro at concentrations ≤ 300 µM)	– (compounds with a dash (-) did not activate the receptors in vitro at concentrations ≤ 300 µM)	– (compounds with a dash (-) did not activate the receptors in vitro at concentrations ≤ 300 µM)
CN(C)CCc1ccc(O)cc1 [Hordenine, hordenine]	15.9	27.0		7.33e-05	2.53	2.2	11.5 mg/kg bw	– (compounds with a dash (-) did not activate the receptors in vitro at concentrations ≤ 300 µM)	1.90 mg/kg bw	– (compounds with a dash (-) did not activate the receptors in vitro at concentrations ≤ 300 µM)	234 mg/kg bw
NCCc1ccc(O)cc1 [Tyramine, tyramine]	34.7	841	metabolized in incubations without co-factor mix	0.000322	78.8	77.2	– (compounds with a dash (-) did not activate the receptors in vitro at concentrations ≤ 300 µM)		– (compounds with a dash (-) did not activate the receptors in vitro at concentrations ≤ 300 µM)	– (compounds with a dash (-) did not activate the receptors in vitro at concentrations ≤ 300 µM)	– (compounds with a dash (-) did not activate the receptors in vitro at concentrations ≤ 300 µM)
CNCC(O)c1ccc(O)cc1 (centres unmarked) [p-Synephrine, Synephrine]	127	140	metabolized in incubations without co-factor mix	0.000198	13.1	11.9	2.35 mg/kg bw		0.914 mg/kg bw	3.32 mg/kg bw	139 mg/kg bw
